BindingDB's records for patent US20250333410 (Xizang Haisco Pharmaceutical, 2025)

These molecules were tested against Potassium voltage-gated channel subfamily H member 2 (Homo sapiens, UniProt Q12809) (assay: Test for hERG Potassium Ion Channel).
Source text: Experimental method: in CHO (Chinese Hamster Ovary) cells stably expressing hERG potassium channel, the whole cell patch-clamp technique was used to record hERG potassium channel current at room temperature. The glass microelectrode was made of a glass electrode blank (BF150-86-10, Sutter) by a puller. The tip resistance after filling the liquid in the electrode was about 2-5 MΩ. The glass microelectrode can be connected to the patch-clamp amplifier by inserting the glass microelectrode into an amplifier probe. The clamping voltage and data recording were controlled and recorded by the pClamp 10 software through a computer. The sampling frequency was 10 kHz, and the filtering frequency was 2 kHz. After the whole cell records were obtained, the cells were clamped at −80 mV, and the step voltage that induced the hERG potassium current (IhERG) was depolarized from −80 mV to +20 mV for 2 s, then repolarized to −50 mV, and returned to −80 mV after 1 s. This voltage stimulation was given every 10 s, and the administration process was started after the hERG potassium current was confirmed to be stable (at least 1 minute). The compound was administered for at least 1 minute at each test concentration, and at least 2 cells (n≥2) were tested at each concentration.

Chain of Potassium voltage-gated channel subfamily H member 2 (Q12809 whole entry): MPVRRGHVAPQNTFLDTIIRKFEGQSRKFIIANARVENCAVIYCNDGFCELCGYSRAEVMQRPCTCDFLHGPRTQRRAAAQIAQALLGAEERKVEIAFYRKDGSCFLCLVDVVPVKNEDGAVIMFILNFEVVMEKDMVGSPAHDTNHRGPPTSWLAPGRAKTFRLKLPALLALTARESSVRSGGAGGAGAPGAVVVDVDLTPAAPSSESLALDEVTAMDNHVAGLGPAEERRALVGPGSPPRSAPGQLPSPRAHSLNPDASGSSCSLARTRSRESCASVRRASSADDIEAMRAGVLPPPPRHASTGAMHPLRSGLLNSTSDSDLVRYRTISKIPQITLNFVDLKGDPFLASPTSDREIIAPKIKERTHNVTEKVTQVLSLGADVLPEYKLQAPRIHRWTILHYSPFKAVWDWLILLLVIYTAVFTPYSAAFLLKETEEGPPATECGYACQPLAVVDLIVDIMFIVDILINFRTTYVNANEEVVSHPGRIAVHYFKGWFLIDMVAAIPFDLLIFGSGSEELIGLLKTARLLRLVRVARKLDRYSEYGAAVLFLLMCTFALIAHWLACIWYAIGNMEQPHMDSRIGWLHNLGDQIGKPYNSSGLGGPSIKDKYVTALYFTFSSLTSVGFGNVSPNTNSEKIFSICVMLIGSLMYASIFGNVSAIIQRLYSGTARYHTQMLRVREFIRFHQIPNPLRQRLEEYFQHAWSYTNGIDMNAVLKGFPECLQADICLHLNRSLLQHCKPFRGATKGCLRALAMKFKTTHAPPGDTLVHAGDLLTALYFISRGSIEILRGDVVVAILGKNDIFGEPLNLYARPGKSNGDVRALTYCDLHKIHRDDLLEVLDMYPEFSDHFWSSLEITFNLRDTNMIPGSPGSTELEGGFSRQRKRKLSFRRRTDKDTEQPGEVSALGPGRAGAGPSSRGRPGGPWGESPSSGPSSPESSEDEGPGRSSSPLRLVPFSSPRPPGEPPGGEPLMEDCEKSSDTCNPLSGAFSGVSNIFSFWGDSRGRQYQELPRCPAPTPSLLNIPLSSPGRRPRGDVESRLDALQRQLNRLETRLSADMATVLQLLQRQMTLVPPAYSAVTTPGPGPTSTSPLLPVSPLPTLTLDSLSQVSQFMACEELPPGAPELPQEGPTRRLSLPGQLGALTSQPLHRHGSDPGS

SMILES	IC50
CNC(=O)COc1cc2cc(Nc3nc(N4CCC(CN5CCC(C6CCN(c7cccc8c(C9CCC(=O)NC9=O)nn(C)c78)CC6)CC5)CC4)ncc3Cl)ccc2n(C)c1=O (stereo unspecified) [US20250333410, Compound 8]	> 40 µM
CNC(=O)COc1cc2cc(Nc3nc(N4CCC(CN5CCC(c6cccc7c6n(C)c(=O)n7C6CCC(=O)NC6=O)CC5)CC4)ncc3Cl)ccc2n(C)c1=O (stereo unspecified) [US20250333410, Compound 35]	> 30 µM
CNC(=O)COc1cc2cc(Nc3nc(N4CCN(CC5CCN(c6ccc7c8c(oc7c6)C(=O)N(C6CCC(=O)NC6=O)C8)CC5)CC4)ncc3Cl)ccc2n(C)c1=O (stereo unspecified) [US20250333410, Compound 46]	> 30 µM
CNC(=O)COc1cc2cc(Nc3nc(N4CCN(CC5CC6(CCN(c7scc8c7C(=O)N(C7CCC(=O)NC7=O)C8=O)CC6)C5)CC4)ncc3Cl)ccc2n(C)c1=O (stereo unspecified) [US20250333410, Compound 67]	> 40 µM
CNC(=O)COc1cc2cc(Nc3nc(N4CCC(N5CCN(c6ccc(NC7CCC(=O)NC7=O)cc6F)CC5)C(F)(F)C4)ncc3Cl)ccc2n(C)c1=O (stereo unspecified) [US20250333410, Compound 71]	> 40 µM
CNC(=O)COc1cc2cc(Nc3nc(N4CC[C@@H](N5CCN(c6ccc(N[C@@H]7CCC(=O)NC7=O)cc6F)CC5)C(F)(F)C4)ncc3Cl)ccc2n(C)c1=O [US20250333410, Compound 72]	> 40 µM
CNC(=O)COc1cc2cc(Nc3nc(N4CC[C@H](N5CCN(c6ccc(N[C@@H]7CCC(=O)NC7=O)cc6F)CC5)C(F)(F)C4)ncc3Cl)ccc2n(C)c1=O [US20250333410, Compound 73]	> 40 µM
CC(=O)COc1cc2cc(Nc3nc(N4CC[C@@H](N5CCN(c6ccc(N[C@H]7CCC(=O)NC7=O)cc6F)CC5)C(F)(F)C4)ncc3Cl)ccc2n(C)c1=O [US20250333410, Compound 75]	> 40 µM
CC(=O)COc1cc2cc(Nc3nc(N4CCC(N5CCN(c6c(F)cc(C7CCC(=O)NC7=O)cc6F)CC5)C(F)(F)C4)ncc3Cl)ccc2n(C)c1=O (stereo unspecified) [US20250333410, Compound 76]	> 40 µM
CNC(=O)COc1cc2cc(Nc3nc(N4CCC(N5CCN(c6cccc7c6n(C)c(=O)n7C6CCC(=O)NC6=O)CC5)C(F)(F)C4)ncc3Cl)ccc2n(C)c1=O (stereo unspecified) [US20250333410, Compound 77]	> 40 µM
CCC(=O)COc1cc2cc(Nc3nc(N4CCC(N5CCN(c6cccc7c(C8CCC(=O)NC8=O)nn(C)c67)CC5)C(F)(F)C4)ncc3Cl)ccc2n(C)c1=O (stereo unspecified) [US20250333410, Compound 78]	> 40 µM
